From article PMC8026785, “The pharmacokinetics of [^18F]UCB-H revisited in the healthy non-human primate brain” (EJNMMI Research, 2021)
“And” between values parts separate entries of the source, which are not always exact repeats. Equal values may be shown once.

Molecular target: T1, SV2A (Macaca fascicularis, UniProt Q4R4X3)
T1 construct: The current study evaluates [^18F]UCB-H pharmacokinetics in healthy NHPs; from tissue; host or cells: brain of living healthy cynomolgus monkeys (in vivo PET)
Assay: Brain PET kinetic modelling (1TCM, 2TCM, 2TCM-c, Logan), test-retest
Format: in vivo, cynomolgus monkeys (Macaca fascicularis)
Method: All four non-human primates (NHP) underwent a 2-h (2 h) test and retest PET scan; two NHP underwent an additional 4-h (4 h) retest PET scan. Three NHP underwent one 4-h (4 h) displacement PET scan. Arterial blood sampling was performed during test and retest scans with PET imaging spaced by at least 3 weeks between each scan. To this end, the femoral artery opposite to the saphenous vein used for radioligand injection was cannulated. For the 2-h (2 h) scans, we collected in total 28 blood samples of 1 mL: 16 samples during the first 5 min followed by […] every 5 min and […] every 10 min. For the 4 h scans, we collected an additional 6 samples every 20 min during the last two hours (34 samples in total). Larger samples (2 – 3 mL) were collected at 5, 15, 30, 60, 90, 120 min (2 h) and at 180, 240 min (4 h) for metabolite analysis. Displacement of [^18F]UCB-H was done by intravenous (IV) administration 90 min after [^18F]UCB-H injection of a bolus of 30 mg/kg LEV, or of 80 µg/kg (≈250 nmol/kg) or 5 mg/kg (≈15 µmol/kg) of cold [^19F]-UCB-H. Full experimental design of all NHP is outlined in Additional file 1: Table 1.
PET imaging was performed on the microPET FOCUS220 (Siemens) under standard anesthesia and monitoring procedures. Data acquisition started with the IV bolus injection of [^18F]UCB-H (32.9 ± 1.0 MBq/kg, 0.35 ± 0.07 µg/kg). Dynamic PET images were reconstructed using standard OSEM-2D algorithms while correcting for radioactive decay, scatter, attenuation and detectors inhomogeneity, which were measured prior to PET scanning using respectively ^57Co and ^68Ge external sources.
PET image analysis was performed using PMOD software version 3.8 (PMOD Technologies Ltd., Zurich, Suisse). After individual co-registration of PET-MR images, a cynomolgus atlas published by Ballanger and coworkers was normalized to PET images to extract time activity curves in different brain regions. Volumes of interest (VOI) were cerebral white matter (16.7 cm^3), striatum (0.24 cm^3), thalamus (0.89 cm^3), cerebellum (3.83 cm^3), frontal—(2.50 cm^3), parietal—(5.35 cm^3), and temporal (8.22 cm^3) cortex, and whole brain (72.2 cm^3) as a composite region of all regions in the atlas. [^18F]UCB-H pharmacokinetics were evaluated by analyzing the time activity curves of the test- and retest scans using 1- and 2-tissue compartment models (unconstrained and constrained with global K1/k2 coupled fit across all regions, further referred to as 2TCM and 2TCM-c), and Logan graphical analysis with a fixed t* at 60 min [33] using the arterial plasma input function corrected for radio-metabolites to derive the volume of distribution in each region. Percentage standard error (%SE) was estimated from the theoretical parameter covariance matrix. Only reliable estimates (%SE less than 25%) were included in the current analyses. For the three drug studies, percent displacement of the total activity in the whole brain was estimated relative to an average baseline constructed from the two 4 h baseline studies. Briefly, Standardized Uptake Value (SUV) time activity curves (TACs) were calculated for the two baseline and the three displacement studies. Then, each curve was normalized to the SUV at t = 90 min, corresponding to the timeframe immediately before the administration of the drugs in the displacement studies. Baseline curves were averaged and the percent displacement of total activity was calculated as (baseline-displacement)/baseline at a given time post drug administration (see “Results”).
Statistical analysis was performed using R software (version 3.3.1.). Plasma, intact parent fraction and time activity curves were statistically compared between subjects using a one-factor variance analysis. Absolute Test–Retest variability (aTRV) of PET quantification parameters was calculated as ABS(test—retest) / AVERAGE(test, retest). […]

[1] = Temporal Cortex, Retest, individual NHP
[2] = Temporal Cortex, Test, individual NHP
[3] = Thalamus, Retest, individual NHP

T1 sequence (Q4R4X3 whole entry): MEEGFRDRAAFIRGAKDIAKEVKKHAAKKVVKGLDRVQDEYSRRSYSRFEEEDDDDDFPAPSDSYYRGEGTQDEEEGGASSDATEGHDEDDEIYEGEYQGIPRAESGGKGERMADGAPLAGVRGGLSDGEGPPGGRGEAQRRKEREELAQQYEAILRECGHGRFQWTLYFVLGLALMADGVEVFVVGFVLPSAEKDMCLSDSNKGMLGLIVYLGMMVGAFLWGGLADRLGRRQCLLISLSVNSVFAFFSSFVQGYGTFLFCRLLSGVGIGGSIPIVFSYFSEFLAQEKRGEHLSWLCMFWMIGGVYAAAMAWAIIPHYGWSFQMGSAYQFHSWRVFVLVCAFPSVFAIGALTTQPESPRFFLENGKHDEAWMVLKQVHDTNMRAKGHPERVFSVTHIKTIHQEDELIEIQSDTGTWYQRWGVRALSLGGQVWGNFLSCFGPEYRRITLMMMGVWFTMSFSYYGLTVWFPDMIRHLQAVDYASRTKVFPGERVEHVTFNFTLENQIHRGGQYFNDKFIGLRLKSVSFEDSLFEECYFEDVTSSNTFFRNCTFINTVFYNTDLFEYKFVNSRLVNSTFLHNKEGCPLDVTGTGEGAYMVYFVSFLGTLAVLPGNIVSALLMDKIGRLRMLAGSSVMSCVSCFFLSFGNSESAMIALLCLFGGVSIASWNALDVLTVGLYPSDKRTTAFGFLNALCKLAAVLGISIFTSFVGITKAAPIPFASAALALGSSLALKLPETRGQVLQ

O=C1C[C@H](c2cc(F)c(F)c(F)c2)CN1Cc1ccncc1[18F] [[^18F]UCB-H]
VT (Logan (t* = 60)) (Striatum, Retest, mean): 15.7 mL/cm^3 | k3/k4 (BPND) (2TCM-c) (Striatum, Retest, mean): 1.12 | K1 (2TCM) (Striatum, Test, individual NHP): 0.24 ml/cm^3 /min and 0.25 ml/cm^3 /min and 0.51 ml/cm^3 /min and 0.63 ml/cm^3 /min | K1 (2TCM-c) (Striatum, Test, individual NHP): 0.24 ml/cm^3 /min and 0.26 ml/cm^3 /min and 0.53 ml/cm^3 /min and 0.63 ml/cm^3 /min | K1/k2 (2TCM) (Striatum, Test, individual NHP): 10.32 ml/cm^3 and 7.75 ml/cm^3 and 12.01 ml/cm^3 and 15.06 ml/cm^3 | K1/k2 (2TCM-c) (Striatum, Test, individual NHP): 7.86 ml/cm^3 and 4.35 ml/cm^3 and 8.22 ml/cm^3 and 10.99 ml/cm^3 | VT (1TCM) (Striatum, Test, individual NHP): 12.87 ml/cm^3 and 11.31 ml/cm^3 and 16.41 ml/cm^3 and 16.40 ml/cm^3 | VT (2TCM) (Striatum, Test, individual NHP): 13.09 ml/cm^3 and 17.60 ml/cm^3 | VT (2TCM-c) (Striatum, Test, individual NHP): 14.78 ml/cm^3 and 11.92 ml/cm^3 and 16.73 ml/cm^3 and 16.50 ml/cm^3 | VT (Logan) (Striatum, Test, individual NHP): 15.21 ml/cm3 and 12.85 ml/cm3 and 17.23 ml/cm3 and 17.97 ml/cm3 | k3/k4 (2TCM) (Striatum, Test, individual NHP): 0.69 | k3/k4 (2TCM-c) (Striatum, Test, individual NHP): 1.74 and 1.24 and 0.50 | VT (1TCM) (Striatum, Test, mean): 14.2 mL/cm^3 | VT (2TCM) (Striatum, Test, mean): 15.3 mL/cm^3 | VT (2TCM-c) (Striatum, Test, mean): 15.0 mL/cm^3 | VT (Logan (t* = 60)) (Striatum, Test, mean): 15.8 mL/cm^3 | k3/k4 (BPND) (2TCM-c) (Striatum, Test, mean): 1.16 | K1 (2TCM) [1]: 0.31 ml/cm^3 /min and 0.45 ml/cm^3 /min and 0.29 ml/cm^3 /min and 0.36 ml/cm^3 /min | K1 (2TCM-c) [1]: 0.32 ml/cm^3 /min and 0.48 ml/cm^3 /min and 0.30 ml/cm^3 /min and 0.36 ml/cm^3 /min | K1/k2 (2TCM) [1]: 11.50 ml/cm^3 and 9.63 ml/cm^3 and 11.78 ml/cm^3 | K1/k2 (2TCM-c) [1]: 7.25 ml/cm^3 and 4.64 ml/cm^3 and 9.07 ml/cm^3 and 10.70 ml/cm^3 | VT (1TCM) [1]: 11.57 ml/cm^3 and 13.96 ml/cm^3 and 13.50 ml/cm^3 and 13.13 ml/cm^3 | VT (2TCM) [1]: 13.97 ml/cm^3 and 13.95 ml/cm^3 | VT (2TCM-c) [1]: 11.57 ml/cm^3 and 14.06 ml/cm^3 and 13.53 ml/cm^3 | VT (Logan) [1]: 11.91 ml/cm3 and 13.90 ml/cm3 and 16.34 ml/cm3 and 13.54 ml/cm3 | k3/k4 (2TCM-c) [1]: 0.60 and 2.03 and 0.29 | K1 (2TCM) [2]: 0.17 ml/cm^3 /min and 0.23 ml/cm^3 /min and 0.37 ml/cm^3 /min and 0.44 ml/cm^3 /min | K1 (2TCM-c) [2]: 0.17 ml/cm^3 /min and 0.24 ml/cm^3 /min and 0.37 ml/cm^3 /min and 0.44 ml/cm^3 /min | K1/k2 (2TCM) [2]: 11.10 ml/cm^3 and 7.16 ml/cm^3 and 8.97 ml/cm^3 and 12.30 ml/cm^3 | K1/k2 (2TCM-c) [2]: 7.86 ml/cm^3 and 4.35 ml/cm^3 and 8.22 ml/cm^3 and 10.99 ml/cm^3 | VT (1TCM) [2]: 12.66 ml/cm^3 and 10.58 ml/cm^3 and 14.25 ml/cm^3 and 13.95 ml/cm^3 | VT (2TCM) [2]: 12.30 ml/cm^3 and 15.50 ml/cm^3 | VT (2TCM-c) [2]: 17.46 ml/cm^3 and 11.23 ml/cm^3 and 14.95 ml/cm^3 and 15.47 ml/cm^3 | VT (Logan) [2]: 14.13 ml/cm3 and 11.99 ml/cm3 and 15.12 ml/cm3 and 15.35 ml/cm3 | k3/k4 (2TCM) [2]: 0.72 | k3/k4 (2TCM-c) [2]: 1.00 and 1.58 and 0.41 | ICC of Logan (t* = 60) VT (Temporal cortex): 0.61 | aTRV of 2TCM-c VT (Temporal cortex): 25% | aTRV of Logan (t* = 60) VT (Temporal cortex): 13% | VT (1TCM) (Temporal cortex, Retest, mean): 13.0 mL/cm^3 | VT (2TCM) (Temporal cortex, Retest, mean): 14.0 mL/cm^3 | VT (2TCM-c) (Temporal cortex, Retest, mean): 13.1 mL/cm^3 | VT (Logan (t* = 60)) (Temporal cortex, Retest, mean): 13.9 mL/cm^3 | k3/k4 (BPND) (2TCM-c) (Temporal cortex, Retest, mean): 0.97 | VT (1TCM) (Temporal cortex, Test, mean): 12.9 mL/cm^3 | VT (2TCM) (Temporal cortex, Test, mean): 13.9 mL/cm^3 | VT (2TCM-c) (Temporal cortex, Test, mean): 14.8 mL/cm^3 | VT (Logan (t* = 60)) (Temporal cortex, Test, mean): 14.1 mL/cm^3 | k3/k4 (BPND) (2TCM-c) (Temporal cortex, Test, mean): 1.00 | ICC of Logan (t* = 60) VT (Thalamus): 0.61 | aTRV of 2TCM-c VT (Thalamus): 18% | aTRV of Logan (t* = 60) VT (Thalamus): 12% | K1 (2TCM) [3]: 0.36 ml/cm^3 /min and 0.51 ml/cm^3 /min and 0.34 ml/cm^3 /min and 0.38 ml/cm^3 /min | K1 (2TCM-c) [3]: 0.37 ml/cm^3 /min and 0.54 ml/cm^3 /min and 0.36 ml/cm^3 /min and 0.38 ml/cm^3 /min | K1/k2 (2TCM) [3]: 12.79 ml/cm^3 and 11.34 ml/cm^3 and 12.88 ml/cm^3 | K1/k2 (2TCM-c) [3]: 7.25 ml/cm^3 and 4.64 ml/cm^3 and 9.07 ml/cm^3 and 10.70 ml/cm^3 | VT (1TCM) [3]: 11.85 ml/cm^3 and 13.85 ml/cm^3 and 14.73 ml/cm^3 and 13.28 ml/cm^3 | VT (2TCM) [3]: 11.88 ml/cm^3 and 14.03 ml/cm^3 | VT (2TCM-c) [3]: 11.88 ml/cm^3 and 13.92 ml/cm^3 and 17.03 ml/cm^3 and 13.98 ml/cm^3 | VT (Logan) [3]: 12.16 ml/cm3 and 14.10 ml/cm3 and 17.41 ml/cm3 and 13.62 ml/cm3
